Results as given in paper PMC11003488 (Journal of Enzyme Inhibition and Medicinal Chemistry, 2023).

Columns and labels:
LOX IMVI = assay: NCI-60 SRB growth inhibition, one-dose and five-dose; type: cell-based; conditions: Homo sapiens
HT29 = assay: as above; type: cell-based; conditions: Homo sapiens
KM12 = assay: as above; type: cell-based; conditions: Homo sapiens
SK-MEL-28 = assay: as above; type: cell-based; conditions: Homo sapiens
U251 = assay: as above; type: cell-based; conditions: Homo sapiens
SK-MEL-5 = assay: as above; type: cell-based; conditions: Homo sapiens
NCI-H23 = assay: as above; type: cell-based; conditions: Homo sapiens
OVCAR-5 = assay: as above; type: cell-based; conditions: Homo sapiens
IGROV1 = assay: as above; type: cell-based; conditions: Homo sapiens
HOP-62 = assay: as above; type: cell-based; conditions: Homo sapiens
786-0 = assay: as above; type: cell-based; conditions: Homo sapiens
HOP-92 = assay: as above; type: cell-based; conditions: Homo sapiens
HCT-15 = assay: as above; type: cell-based; conditions: Homo sapiens
[1] = tested on: NCI 60-cell line panel (full panel); assay: NCI-60 SRB growth inhibition, full panel mean / MG-MID; type: cell-based, human
SK-OV-3 = assay: NCI-60 SRB growth inhibition, one-dose and five-dose; type: cell-based; conditions: Homo sapiens
PC-3 = assay: as above; type: cell-based; conditions: Homo sapiens
NCI/ADR-RES = assay: as above; type: cell-based; conditions: Homo sapiens
HCT-116 = assay: as above; type: cell-based; conditions: Homo sapiens
COLO 205 = assay: as above; type: cell-based; conditions: Homo sapiens
MALME-3M = assay: as above; type: cell-based; conditions: Homo sapiens
CCRF-CEM = assay: as above; type: cell-based; conditions: Homo sapiens
TK-10 = assay: as above; type: cell-based; conditions: Homo sapiens
NCI-H226 = assay: as above; type: cell-based; conditions: Homo sapiens
MCF7 = assay: as above; type: cell-based; conditions: Homo sapiens
EKVX = assay: as above; type: cell-based; conditions: Homo sapiens
UACC-62 = assay: as above; type: cell-based; conditions: Homo sapiens
K-562 = assay: as above; type: cell-based; conditions: Homo sapiens
SNB-75 = assay: as above; type: cell-based; conditions: Homo sapiens
M14 = assay: as above; type: cell-based; conditions: Homo sapiens
T-47D = assay: as above; type: cell-based; conditions: Homo sapiens, T47D
OVCAR-4 = assay: as above; type: cell-based; conditions: Homo sapiens
NCI-H460 = assay: as above; type: cell-based; conditions: Homo sapiens
SF-268 = assay: as above; type: cell-based; conditions: Homo sapiens
HCC-2998 = assay: as above; type: cell-based; conditions: Homo sapiens
SK-MEL-2 = assay: as above; type: cell-based; conditions: Homo sapiens
A498 = assay: as above; type: cell-based; conditions: Homo sapiens
NCI-H322M = assay: as above; type: cell-based; conditions: Homo sapiens
NCI-H522 = assay: as above; type: cell-based; conditions: Homo sapiens
ACHN = assay: as above; type: cell-based; conditions: Homo sapiens
BT-549 = assay: as above; type: cell-based; conditions: Homo sapiens
OVCAR-3 = assay: as above; type: cell-based; conditions: Homo sapiens
HS 578 T = assay: as above; type: cell-based; conditions: Homo sapiens
[2] = read-out: percent growth inhibition

In the case of `CC(=O)Nc1ccc(/C=C/C(=O)c2cccc(NCc3ccc(C)cc3)c2)cc1` [Compound 5f, (E)-N-(4–(3-(3-((4-methylbenzyl)amino)phenyl)-3-oxoprop-1-en-1-yl)phenyl)acetamide], the GI50 (LOX IMVI) is reported as 2.97 µM, the inhibition at 10 µM (LOX IMVI; [2]) is reported as 157% and the GI50 (HT29; HT-29) is reported as 10.7 µM. It also gave an inhibition at 10 µM (HT29; HT-29, read-out: percent growth inhibition) of 128%, a GI50 (KM12; KM12) of 7.04 µM and an inhibition at 10 µM (KM12; KM12, read-out: percent growth inhibition) of 136%. It also gave a GI50 (SK-MEL-28; SK-MEL-28) of 15.2 µM, an inhibition at 10 µM (SK-MEL-28; SK-MEL-28, read-out: percent growth inhibition) of 25% and a GI50 (U251; U-251) of 3.89 µM. It also gave an inhibition at 10 µM (U251; U-251, read-out: percent growth inhibition) of 127%, a GI50 (SK-MEL-5; SK-MEL-5) of 7.24 µM and an inhibition at 10 µM (SK-MEL-5; SK-MEL-5, read-out: percent growth inhibition) of 49.6%. For the same molecule, the GI50 (NCI-H23; NCI-H23) was 10.4 µM, the inhibition at 10 µM (NCI-H23; NCI-H23, read-out: percent growth inhibition) was 26.2% and the GI50 (OVCAR-5; OVCAR-5) was 18.5 µM. It also gave an inhibition at 10 µM (OVCAR-5; OVCAR-5, read-out: percent growth inhibition) of 29.2%, a GI50 (IGROV1; IGROV-1) of 12.9 µM and an inhibition at 10 µM (IGROV1; IGROV-1, read-out: percent growth inhibition) of 39%. For the same molecule, the GI50 (HOP-62; HOP-62) was 13.9 µM, the inhibition at 10 µM (HOP-62; HOP-62, read-out: percent growth inhibition) was 13.9% and the GI50 (786-0; 786-0) was 10.3 µM. The inhibition at 10 µM (786-0; 786-0, read-out: percent growth inhibition) was 60.4%, the GI50 (HOP-92; HOP-92) was 15.5 µM and the inhibition at 10 µM (HOP-92; HOP-92, read-out: percent growth inhibition) was 8.52%. For the same molecule, the GI50 (HCT-15; HCT-15) was 3.31 µM, the inhibition at 10 µM (HCT-15; HCT-15, read-out: percent growth inhibition) was 113% and the GI50 ([1]; Homo sapiens, 60 cell, read-out: Full panel GI50 mean) was 9.25 µM. The “Full panel Mean GI %” value ([1]; mean over NCI-60 panel, single dose 10 µM) was 61.75%, the GI50 (SK-OV-3; SK-OV-3) was 25.8 µM and the inhibition at 10 µM (SK-OV-3; SK-OV-3, read-out: percent growth inhibition) was 31.6%. The GI50 (PC-3; PC-3) was 12.7 µM, the inhibition at 10 µM (PC-3; PC-3, read-out: percent growth inhibition) was 67.2% and the GI50 (NCI/ADR-RES) was 3.72 µM. It also gave a GI50 (HCT-116; HCT-116, HCT-116, five-dose screening) of 1.91 µM, an inhibition at 10 µM (HCT-116; HCT-116, read-out: percent growth inhibition) of 179% and a GI50 (COLO 205; COLO 205) of 16 µM. It also gave an inhibition at 10 µM (COLO 205; COLO 205, read-out: percent growth inhibition) of 53.7%, a GI50 (MALME-3M) of 12.3 µM and an inhibition at 10 µM (MALME-3M; [2]) of 31.1%. The GI50 (CCRF-CEM) was 2.84 µM, the inhibition at 10 µM (CCRF-CEM; [2]) was 87.2% and the GI50 (TK-10; TK-10) was 13.8 µM. The inhibition at 10 µM (TK-10; TK-10, read-out: percent growth inhibition) was -10.1%, the GI50 (NCI-H226; NCI-H226) was 13.7 µM and the inhibition at 10 µM (NCI-H226; NCI-H226, read-out: percent growth inhibition) was 21.8%. The GI50 (MCF7; MCF7) was 3.37 µM, the inhibition at 10 µM (MCF7; MCF7, read-out: percent growth inhibition) was 90.5% and the GI50 (EKVX) was 12.6 µM. The inhibition at 10 µM (EKVX; [2]) was 20.9%, the GI50 (UACC-62; UACC-62) was 10.8 µM and the inhibition at 10 µM (UACC-62; UACC-62, read-out: percent growth inhibition) was 48.7%. For the same molecule, the GI50 (K-562; K562) was 3.04 µM, the inhibition at 10 µM (K-562; K562, read-out: percent growth inhibition) was 64.2% and the GI50 (SNB-75; SNB-75) was 12.5 µM. It also gave an inhibition at 10 µM (SNB-75; SNB-75, read-out: percent growth inhibition) of 32.3%, a GI50 (M14; M14) of 14 µM and an inhibition at 10 µM (M14; M14, read-out: percent growth inhibition) of 54.7%. It also gave a GI50 (T-47D) of 10.2 µM, an inhibition at 10 µM (T-47D; [2]) of 86.5% and a GI50 (OVCAR-4; OVCAR-4) of 6.18 µM. It also gave an inhibition at 10 µM (OVCAR-4; OVCAR-4, read-out: percent growth inhibition) of 56.1%, a GI50 (NCI-H460; NCI-H460) of 4.18 µM and an inhibition at 10 µM (NCI-H460; NCI-H460, read-out: percent growth inhibition) of 68%. For the same molecule, the GI50 (SF-268; SF-268) was 4.58 µM, the inhibition at 10 µM (SF-268; SF-268, read-out: percent growth inhibition) was 45.8% and the GI50 (HCC-2998; HCC 2998) was 13.9 µM. It also gave an inhibition at 10 µM (HCC-2998; HCC 2998, read-out: percent growth inhibition) of 15.2%, a GI50 (SK-MEL-2; SK-MEL-2) of 11.5 µM and an inhibition at 10 µM (SK-MEL-2; SK-MEL-2, read-out: percent growth inhibition) of 16.5%. The GI50 (A498; A498) was 17.9 µM, the inhibition at 10 µM (A498; A498, read-out: percent growth inhibition) was -0.63% and the GI50 (NCI-H322M) was 15.1 µM. The inhibition at 10 µM (NCI-H322M; [2]) was 22.5%, the GI50 (NCI-H522; NCI-H522) was 11 µM and the inhibition at 10 µM (NCI-H522; NCI-H522, read-out: percent growth inhibition) was 106%. For the same molecule, the GI50 (ACHN) was 13.2 µM, the inhibition at 10 µM (ACHN; [2]) was 65% and the GI50 (BT-549; BT-549) was 5.26 µM. The inhibition at 10 µM (BT-549; BT-549, read-out: percent growth inhibition) was 66%, the GI50 (OVCAR-3; OVCAR-3) was 3.19 µM and the inhibition at 10 µM (OVCAR-3; OVCAR-3, read-out: percent growth inhibition) was 78%. The GI50 (HS 578 T) was 15.4 µM and the inhibition at 10 µM (HS 578 T; [2]) was 47%.
